Drawing on ChEMBL document CHEMBL1155696, “Enhanced cytotoxicity in a Z-photoisomer of a benzopyran derivative of propolis” (J Nat Prod, 2000), this text covers IC50 and Activity for two molecules.

The IC50 is the concentration that inhibits the measured activity by half. A lower IC50 goes with greater potency.

Active and inactive are the calls of the source. The calls are words filed in the database; no cut-off is given here.

The nature of data set [1]: Cytotoxicity against human HLC2 cells after 6 days by WST8 dye reduction assay. The data set is classed as functional, cell-based. The settings on record: HLC2, 144 h. On the technique in general: Formazan colour is commonly taken as a measure of viable cells.
Data set [2] in a line: Cytotoxicity against human HLC2 cells after 3 days by WST8 dye reduction assay. It is filed as functional, cell-based. Conditions: HLC2, 72 h.
The subject of the next data set is HuH13. The data set can be described thus: Cytotoxicity against human HuH13 cells. It is filed as functional, cell-based.
Data set [3] in a line: Photochemical stability exposed to visible light in methanol assessed as conversion to (Z)-2,2-Dimethyl-8-(3-methyl-2-butenyl)-benzopyran-6-propenoic acid after 7 days. The settings on record: 168 h.

In the case of `CC(C)=CCc1cc(/C=C\C(=O)O)cc2c1OC(C)(C)C=C2`, the half-maximal inhibitory concentration (IC50) came out at 10 µM in data set [1] and 34 µM in data set [2]. Besides, in the data set with HuH13, the outcome was Active.

Consider `CC(C)=CCc1cc(/C=C/C(=O)O)cc2c1OC(C)(C)C=C2` [CULIFOLIN], for which the half-maximal inhibitory concentration (IC50) in data set [1] is 100 µM; in data set [2] it was 230 µM. Besides, the Activity in data set [3] was 71%. Besides, in the data set with HuH13, the result was Active.
